The text below walks through data of US20110263651A1, “NOVEL PIPERIDINE-BUTYRAMIDE DERIVATIVES AND THEIR USE AS MONOAMINE NEUROT[…]-UPTAKE INHIBITORS” (N[…]/S, priority 2008, published 2011).

Counter-ions that a name gives are not always drawn.

What all share (type): biochemical
Assay [1] deals with serotonine (5-HT) reuptake in synaptosomes. Kind of assay: Inhibition of 5-HT reuptake in synaptosomes. As to conditions: 3H-5-HT, read-out: 5-HT-uptake IC50. As for the experimental part:
(§1) Compounds were tested for their ability to inhibit the reuptake of the monoamine neurotransmitters dopamine (DA) noradrenaline (NA) and serotonine (5-HT) in synaptosomes as described in WO 97/16451 (NeuroSearch NS).
(§2) The test values are given as IC50 (the concentration (μM) of the test substance which inhibits the specific binding of ^3H-DA, ^3H-NA, or ^3H-5-HT by 50%).

The subject of assay [2] is dopamine (DA) reuptake in synaptosomes. Kind of assay: Inhibition of DA reuptake in synaptosomes. As to conditions: 3H-DA, read-out: DA-uptake IC50. The method, then:
as §1, §2

Assay [3] has as its system noradrenaline (NA) reuptake in synaptosomes. Kind of assay: Inhibition of NA reuptake in synaptosomes. The note with it: 3H-NA, read-out: NA-uptake IC50. The method, then: as §1, §2

With `CCN(C(=O)CCCC1CCNCC1)c1ccc(Cl)c(Cl)c1` [Compound 3.1, N-(3,4-Dichloro-phenyl)-N-ethyl-4-piperidin-4-yl-butyramide fumaric acid salt], the IC50 turned out to be 570 nM in assay [1], 12 nM in assay [2] and 30 nM in assay [3].

Regarding `CCN(C(=O)CCCC1CCN(C)CC1)c1ccc(Cl)c(Cl)c1` [Compound 4.1, N-(3,4-Dichloro-phenyl)-N-ethyl-4-(1-methyl-piperidin-4-yl)-butyramide fumaric acid salt], the IC50 in assay [1] was found to be 800 nM; in assay [2], 6.9 nM; in assay [3], 12 nM.
